Earlier results in patent publication US9849196B2, “Methods and compositions for altering photophysical properties of fluorophores via proximal quenching” (Cornell University, priority 2009, dated 2017).

Details: background statement
In the case of C1=CC=CC=CC=C1 [COT, cyclooctatetraene], the “solubility in aqueous solutions” value is given as “highly insoluble”.
For O=[N+]([O-])c1ccc(CO)cc1 [NBA, p-nitrobenzyl alcohol], the “solubility in aqueous solutions” value is listed as “highly insoluble”.
For Cc1c(C)c2c(c(C)c1O)CCC(C)(C(=O)O)O2 (stereo not drawn) [Trolox], the “solubility in aqueous solutions” value is listed as “highly insoluble”.
